Test results as given in patent US5235061A, “Fungicidal (1H-1,2,4-triazolyl)disilaalkanes” (priority 1991, dated 1993).

Assays:
Assay in all cases: In vitro percent disease control (radii of spore growth on agar)
Type in all cases: cell-based
[1] = test system: Fusarium moniliforme
Procedure: (§1) The compounds of this invention were dissolved respectively in acetone in an amount equal to 10% of the final volume and then in purified water at the concentration of 100 ppm and 50 ppm.
(§2) Each of the solution was mixed with potato-sucrose-agar medium in a 6" petri dish and one of the fungi was spotted at the center of the dish. The dish was incubated in growth room for several days. The percent disease control was derived from the radii of spore growth. The screening tests in vitro condition are well-known to those skilled in the art.
(§3) The following fungi were used for the screening.
8) Fu.mo.; Fusarium moniliforme

[2] = test system: Physalospora baccae; conditions: read-out: % controlled, Phy ba.
Procedure: as §1, §2, §3
3) Phy. ba.; Physalospora baccae

[3] = test system: Pyricalaria oryzae; conditions: for inhibition of growth at 50 ppm: read-out: % controlled, Py. or., 50 ppm; for inhibition of growth at 100 ppm: read-out: % controlled, Py. or., 100 ppm
Procedure: as §1, §2, §3
6) Py.or.; Pyricalaria oryzae

[4] = test system: Botry tris cinerea; conditions: read-out: % controlled, Bo ci.
Procedure: as §1, §2, §3
10) Bo.ci.; Botry tris cinerea

[5] = test system: Glomerella cingulata; conditions: Colletotrichum gloeosporioides, read-out: % controlled, Glo.
Procedure: as §1, §2, §3
5) Glo.; Glomerella cingulata

[6] = test system: Rhizopus sp.; conditions: Rhizopus, read-out: % controlled, Rhi. sp.
Procedure: as §1, §2, §3

[7] = test system: Alternaria mali; conditions: Alternaria mali, read-out: % controlled, Al.
Procedure: as §1, §2, §3

[8] = test system: Botryosphaeria dothidea Macrophoma sp.; conditions: Botryosphaeria dothidea, read-out: % controlled, Bo.do (Ma.)
Procedure: as §1, §2, §3
4) Bo.do(Ma); Botryosphaeria dothidea Macrophoma sp.

[9] = test system: Phytophthora capsisi; conditions: Phytophthora, read-out: % controlled, Phy ca.
Procedure: as §1, §2, §3
2) Phy. ca.; Phytophthora capsisi

[10] = test system: Rhizoctonia solani; conditions: Rhizoctonia solani, read-out: % controlled, Rhy. so.
Procedure: as §1, §2, §3
7) Rhi.so.; Rhizoctonia solani

SMILES | % controlled, Fu. mo. ([1]; 50 ppm) [%] | % controlled, Fu. mo. ([1]; 100 ppm) [%] | inhibition of growth at 50 ppm [2] [%] | inhibition of growth at 100 ppm [2] [%] | inhibition of growth at 50 ppm [3] [%] | inhibition of growth at 100 ppm [3] [%] | inhibition of growth at 50 ppm [4] [%] | inhibition of growth at 100 ppm [4] [%] | inhibition of growth at 50 ppm [5] [%] | inhibition of growth at 100 ppm [5] [%] | inhibition of growth at 50 ppm [6] [%] | inhibition of growth at 100 ppm [6] [%] | inhibition of growth at 50 ppm [7] [%] | inhibition of growth at 100 ppm [7] [%] | inhibition of growth at 50 ppm [8] [%] | inhibition of growth at 100 ppm [8] [%] | inhibition of growth at 50 ppm [9] [%] | inhibition of growth at 100 ppm [9] [%] | inhibition of growth at 50 ppm [10] [%] | inhibition of growth at 100 ppm [10] [%]
CCOc1ccc([Si](Cn2cncn2)(C[Si](C)(C)c2ccc(F)cc2)c2ccc(OCC)cc2)cc1 [2,2-bis(4-ethoxyphenyl)-4-(4-fluorophenyl)-4-methyl-2,4-disila-1-(1H-1,2,4-triazol-1-yl)pentane] | 58 | 63 | 53 | 74 | 100 | 100 | 69 | 66 | 71 | 77 | 19 | 43 | 63 | 72 | 74 | 78 | 50 | 60 | 78 | 78
C[Si](C)(C[Si](C)(Cn1cncn1)c1ccc(Cl)cc1)c1ccc(F)cc1 (stereo not drawn) [2-(4-chlorophenyl)-4-(4-fluorophenyl)-2,4-dimethyl-2,4-disila-1-(1H-1,2,4-triazol-1-yl)pentane] | 34 | 58 | 20 | 20 | 46 | 48 | 13 | 18 | 67 | 73 | 18 | 20 | 38 | 38 | 43 | 43 | 0 | 0 | 31 | 50
C[Si](C)(C[Si](Cn1cncn1)(c1ccc(F)cc1)c1ccc(F)cc1)c1ccc(Cl)cc1 [4-(4-chlorophenyl)-2,2-bis(4-fluorophenyl)-4-methyl-2,4-disila-1-(1H-1,2,4-triazol-1-yl)pentane] | 45 | 56 | 80 | 100 | 76 | 87 | 76 | 80 | 87 | 90 | 78 | 89 | 32 | 34 | 76 | 87 | 10 | 12 | 100 | 100
C[Si](C)(Cc1ccc(F)cc1)C[Si](C)(Cn1cncn1)c1ccc(F)cc1 (stereo not drawn) [4-(4-fluorobenzyl)-2-(4-fluorophenyl)-2,4-dimethyl-2,4-disila-1-(1H-1,2,4-triazol-1-yl)pentane] | 34 | 41 | 26 | 30 | 50 | 57 | 0 | 0 | 0 | 0 | 21 | 24 | 38 | 43 | 40 | 49 | 3 | 3 | 36 | 36
C=CC[Si](C)(Cn1cncn1)C[Si](CC=C)(c1ccccc1)c1ccccc1 (stereo not drawn) [6,6-diphenyl-4-methyl-4,6-disila-4-(1H-1,2,4-triazol-1-ylmethyl)-1,8-nonadiene] | 60 | 100 | 84 | 100 | 100 | 100 | 77 | 100 | 89 | 100 | 50 | 100 | 72 | 89 | 80 | 100 | 33 | 40 | 80 | 100
COc1ccc([Si](Cn2cncn2)(C[Si](C)(C)c2ccc(Cl)cc2)c2ccc(Cl)cc2)cc1 (stereo not drawn) [2,4-bis(4-chlorophenyl)-2-(4-methoxyphenyl)-4-methyl-2,4-disila-1-(1H-1,2,4-triazol-1-yl)pentane] | 42 | 48 | 76 | 79 | 100 | 100 | 40 | 43 | 76 | 87 | 46 | 50 | 74 | 89 | 75 | 79 | 45 | 65 | 90 | 92
C=CC[Si](C[Si](C)(Cn1cncn1)c1ccc(F)cc1)(c1ccc(F)cc1)c1ccc(F)cc1 (stereo not drawn) [4,4,6-tris(4-fluorophenyl)-6-methyl-4,6-disila-7-(1H-1,2,4-triazole-1-yl)-1-heptane] | 58 | 63 | 53 | 74 | 100 | 100 | 69 | 66 | 71 | 77 | 19 | 43 | 63 | 72 | 74 | 78 | 50 | 60 | 78 | 78
C=CC[Si](C)(Cn1cncn1)C[Si](CC=C)(CC=C)c1ccc(F)cc1 (stereo not drawn) [6-(4-fluorophenyl)-4-methyl-6-(2-propenyl)-4,6-disila-4-(1H-1,2,4-triazol-1-ylmethyl)-1,8-nonadiene] | 60 | 60 | 90 | 95 | 100 | 100 | 90 | 95 | 82 | 85 | 56 | 58 | 78 | 90 | 79 | 90 | 55 | 60 | 96 | 96
C=CC[Si](C)(Cn1cncn1)C[Si](CC=C)(c1ccccc1)c1ccc(F)cc1 (stereo not drawn) [6-(4-fluorophenyl)-4-methyl-6-phenyl-4,6-disila-4-(1H-1,2,4-triazol-1-ylmethyl)-1,8-nonadiene] | 60 | 66 | 82 | 82 | 90 | 90 | 60 | 70 | 80 | 85 | 50 | 50 | 55 | 92 | 79 | 79 | 65 | 70 | 96 | 96
